Measured values from ChEMBL document CHEMBL1124722, “Synthesis and anticonvulsant activity of 2-benzylglutarimides” (J Med Chem, 1990).
Activity calls are given as the source filed them. The calls are words filed in the database; no cut-off is given here.

Legend:
[1] = organism: Mus musculus; test: Time of peak effect activity against maximal electroshock induced seizures; type: functional
[2] = organism: Mus musculus; test: Median hypnotic dose by loss of righting reflex; type: functional
[3] = test system: Mus musculus; test: The compound was tested for anticonvulsant activity against (subcutaneous administered) Metrazol induced seizures after intraperitoneal administration; type: functional
[4] = test system: Mus musculus; test: The effective dose of compound was tested against maximal electroshock induced seizures after intraperitoneal administration; type: functional; conditions: ip
[5] = test system: Mus musculus; test: The compound was tested for anticonvulsant activity against (subcutaneous administered) strychnine induced seizures after intraperitoneal administration; type: functional
[6] = organism: Mus musculus; test: Median lethal dose was measured after 24 hr; type: functional
[7] = test system: Mus musculus; test: The effective dose of compound was tested against maximal electroshock induced seizures after oral administration in mice; type: functional
[8] = test system: Mus musculus; test: The effective dose of compound was tested against subcutaneous administered Metrazol induced seizures after intraperitoneal administration; type: functional
[9] = organism: Mus musculus; test: Time of peak effect toxicity against maximal electroshock induced seizures; type: organism-based; conditions: in vivo
[10] = test system: Rattus norvegicus; test: The effective dose of compound was tested against subcutaneous administered Metrazol induced seizures in rat.; type: functional; conditions: sc
[11] = test system: Mus musculus; test: The effective dose of compound was tested against subcutaneous administered Metrazol induced seizures in mice; type: functional; conditions: sc
[12] = test system: Mus musculus; test: Anticonvulsant activity against subcutaneous administered Metrazol induced seizures (scMET) after 4 hr; Not active up to 300 mg/kg; type: functional, organism-based; set-up: dose 300 mg/kg
[13] = test system: Mus musculus; test: Anticonvulsant activity against maximal electroshock induced seizures (MES) after 0.5 h; Not active up to 300 mg/kg; type: functional, organism-based; set-up: dose 300 mg/kg
[14] = test system: Mus musculus; test: Anticonvulsant activity against maximal electroshock induced seizures after 4 hr; Not active up to 300 mg/kg.; type: functional, organism-based; set-up: dose 300 mg/kg
[15] = test system: Mus musculus; test: Anticonvulsant activity against subcutaneous administered Metrazol induced seizures (scMET) after 0.5 hr; Not active up to 300 mg/kg; type: functional, organism-based; set-up: dose 300 mg/kg
[16] = test system: Mus musculus; test: The Neurologic toxicity by measuring rotarod test after 4 hr at 300 mg/kg; Active; type: organism-based; set-up: dose 300 mg/kg; conditions: in vivo
[17] = test system: Mus musculus; test: The Neurologic toxicity by measuring rotarod test after 0.5 hr at 300 mg/kg; Active; type: organism-based; set-up: dose 300 mg/kg; conditions: in vivo
[18] = test system: Mus musculus; test: Anticonvulsant activity against subcutaneous administered Metrazol induced seizures (scMET) after 0.5 hr at 300 mg/kg; Active; type: functional, organism-based; set-up: dose 300 mg/kg
[19] = test system: Mus musculus; test: (§1) The Neurologic toxicity by measuring rotarod test after 4 hr; Not active up to 300 mg/kg; type: organism-based; set-up: dose 300 mg/kg; conditions: in vivo
[20] = test system: Mus musculus; test: Anticonvulsant activity against subcutaneous administered Metrazol induced seizures (scMET) after 4 hr at 100 mg/kg; Active; type: functional, organism-based; set-up: dose 100 mg/kg
[21] = test system: Mus musculus; test: The effective dose of compound was tested against subcutaneous administered Metrazol induced seizures after intraperitoneal administration.; type: functional
[22] = organism: Mus musculus; test: Time of peak effect was determined for toxicity; type: organism-based; set-up: unit not given here; conditions: in vivo
[23] = The cytotoxicity after intraperitoneal administration; type: organism-based; conditions: mouse, in vivo, ip
[24] = Protective index was calculated (TD50/ED50) in MES assay in mice after intraperitoneal administration; […]; type: functional, organism-based
[25] = Protective index was calculated (TD50/ED50) in scMET assay in mice after intraperitoneal administration; type: functional
[26] = organism: Mus musculus; test: Time of peak effect was determined for activity in MES; type: functional; set-up: unit not given here
[27] = test system: Mus musculus; test: (§2) The Neurologic toxicity by measuring rotarod test after 0.5 h; Not active up to 300 mg/kg; type: organism-based; set-up: dose 300 mg/kg; conditions: in vivo
[28] = test system: Mus musculus; test: as §2; type: functional, organism-based; set-up: dose 300 mg/kg
[29] = test system: Mus musculus; test: as §1; type: functional, organism-based; set-up: dose 300 mg/kg
[30] = test system: Mus musculus; test: Anticonvulsant activity against maximal electroshock induced seizures (MES) after 0.5 hr at 300 mg/kg; Active; type: functional, organism-based; set-up: dose 300 mg/kg
[31] = test system: Mus musculus; test: Anticonvulsant activity against maximal electroshock induced seizures (MES) after 4 hr at 300 mg/kg; Active; type: functional, organism-based; set-up: dose 300 mg/kg
[32] = test system: Mus musculus; test: Anticonvulsant activity against subcutaneous administered Metrazol induced seizures (scMET) after 0.5 hr at 30 mg/kg; Active; type: functional, organism-based; set-up: dose 30 mg/kg
[33] = test system: Mus musculus; test: Anticonvulsant activity against subcutaneous administered Metrazol induced seizures (scMET) after 4 hr at 300 mg/kg; Active; type: functional, organism-based; set-up: dose 300 mg/kg
[34] = test system: Mus musculus; test: The Neurologic toxicity by measuring rotarod test after 4 hr; No toxicity up to 300 mg/kg; type: organism-based; set-up: dose 300 mg/kg; conditions: in vivo
[35] = Protective index was calculated (TD50/ED50) in MES assay in mice after intraperitoneal administration; type: functional
[36] = test system: Mus musculus; test: Anticonvulsant activity against subcutaneous administered Metrazol induced seizures (scMET) after 0.5 hr at 100 mg/kg; Active; type: functional, organism-based; set-up: dose 100 mg/kg
[37] = test system: Mus musculus; test: The effective dose of compound was tested against maximal electroshock induced seizures after intraperitoneal administration; no protection up to 1050 mg/kg; type: functional, organism-based; set-up: dose 1050 mg/kg
[38] = test system: Mus musculus; test: Anticonvulsant activity against maximal electroshock induced seizures (MES) after 0.5 hr at 100 mg/kg; Active; type: functional, organism-based; set-up: dose 100 mg/kg

Structure (SMILES)	ED50 [4]	ED50 [8]	Activity [12]	Activity [13]	Activity [14]	Activity [15]	Toxicity [16]	Toxicity [17]	Activity [18]	Toxicity [19]	Activity [20]	TPE [22]	TD50 [23]	Ratio [25]	TPE [26]	Toxicity [27]	further results
CCCC(CCC)C(=O)O [VALPROIC ACID]	272 mg/kg	149 mg/kg	–	–	–	–	–	–	–	–	–	–	–	–	–	–	Activity [1]: 0.25; HD50 [2]: 885.53 mg/kg; ED50 [3]: 149 mg/kg; ED50 [5]: 293 mg/kg; LD50 [6]: 1100 mg/kg; ED50 [7]: 665 mg/kg; Time of peak effect [9]: 0.25; ED50 [10]: 180 mg/kg; ED50 [11]: 388 mg/kg
CC(C)Oc1ccc(CC2CCC(=O)NC2=O)cc1 (stereo not given)	–	–	inactive	inactive	inactive	inactive	Active	Active	–	–	–	–	–	–	–	–	–
O=C1CCC(Cc2ccc(F)cc2)C(=O)N1 (stereo not given)	–	–	inactive	–	inactive	–	–	Active	Active	Not Active	–	–	–	–	–	–	–
O=C1CCC(Cc2ccc(Cl)cc2Cl)C(=O)N1 (stereo not given)	–	–	–	inactive	inactive	–	Active	Active	Active	–	Active	0.5	687 mg/kg	4.29	1	–	ED50 [21]: 160 mg/kg; Ratio [24]: inactive
O=C1CCC(Cc2ccc(Cl)c(Cl)c2)C(=O)N1 (stereo not given)	–	–	inactive	inactive	inactive	inactive	–	–	–	Not Active	–	–	–	–	–	Not Active	–
C[Si](C)(C)c1ccc(CC2CCC(=O)NC2=O)cc1 (stereo not given)	–	–	inactive	inactive	inactive	inactive	–	–	–	–	–	–	–	–	–	–	Toxicity [28]: inactive; Toxicity [29]: inactive
O=C1CCC(Cc2ccccc2Br)C(=O)N1 (stereo not given)	–	–	inactive	inactive	inactive	inactive	Active	Active	–	–	–	–	–	–	–	–	–
O=C1CCC(Cc2ccc(Br)cc2)C(=O)N1 (stereo not given)	279 mg/kg	56.3 mg/kg	–	–	–	–	–	Active	–	–	–	–	513 mg/kg	9.11	–	–	Activity [30]: Active; Activity [31]: Active; Activity [32]: Active; Activity [33]: Active; TPE [1]: 1; TPE [9]: 1; Toxicity [34]: No toxicity up to 300 mg/kg; Ratio [35]: 1.84
CN1C(=O)CCC(Cc2ccc(Cl)cc2Cl)C1=O (stereo not given)	–	153 mg/kg	–	inactive	inactive	–	–	–	–	Not Active	Active	2	650 mg/kg	4.24	0.5	Not Active	Activity [36]: Active; ED50 [37]: no protection up to 1050 mg/kg
CN1C(=O)CCC(Cc2ccccc2Br)C1=O (stereo not given)	474 mg/kg	256 mg/kg	–	–	inactive	–	–	–	Active	Not Active	Active	0.5	617 mg/kg	2.41	1	Not Active	Activity [38]: Active; Ratio [35]: 1.3
